According to patent publication US8741965B2, “Method of administering a pheromone composition to an animal to modify the animals behavior over an extended period of time” (Sergeant's Pet Care Products, Inc., priority 2011, dated 2014):
Entries after “also recorded” stand apart in the source; their conditions may differ. Marks after values point to notes of the source that are not given here.

Assays:
[1] = test system: nervous dogs (dogs 5-8); assay: Example 11 Study 4: room diffusers over 24 hours; type: in vivo, dog; details: for heart rate and surface temperature of individual dogs: compared with Placebo, FIGS. 17A and 17B
Description: (§1) Eight dogs were obtained from a local contract research facility and assessment was made as to general dog health, behavior and heart rate. The dogs were estimated to be 2 to 7 years of age, mixed breed, and weighed averagely 8.1±0.18 kg at the start of the studies. […] Upon arrival each dog was bathed using shampoo containing flea and tick medicine (Hartz Mountain Corp. Secaucus, N.J. USA), and their body hair was shaved. Each dog was kept in a single room, which had 100% fresh air intake and exhaust. The dogs were fed twice (am and pm) per day ad libitum. At that time, the room was cleaned and the dogs obtained extra exercise. Water was available ad libitum.
(§2) Dog behavior was captured on video media at a sampling rate of 30 frames per second. Video records were reviewed in real time (with tape playing 30 frames per second). A scan sampling method was used to record dog behaviors each minute or each 5 minutes depending on the particular study. If the sample period was 120 minutes with four periods (0-30=0, 30-60=30, 60-90=60, and 90-120-90 min), then a scan sample was recorded each 1 minute. If the sample period was 24 hours, then the scan sample was collected each 5 minutes and summarized each hour. For example, pacing is when a dog walks in a stereotyped manner for minutes to hours. Because it was not easy to distinguish walking from pacing, the behaviors were merged. In addition, the video records could not clearly distinguish lying down and awake versus lying down and sleeping, therefore there was no separate description for these two behaviors.
(§3) Heart rate during the studies was measured by the use of a non-invasive telemetry system (Data Science International, St. Paul, Minn., USA). Leads were placed in contact with the dogs' shaved skin. Sensors measured heart rate, surface temperature and general activity. Data were transmitted to a receiving computer in another room. The sampling rate varied with the study, but was 5 seconds for the first two hours after treatments and then each 1 minute for 24 hours (depending on the particular study). For surface temperature measurements of the dog subjects, a thermistor was located against the skin of each dog. It recorded the surface temperature to the neared 0.1° C. on the same interval as the heart rate data.
(§4) Behavior and physiological data (heart rate and surface temperature) were analyzed by least squares analysis of variance using SAS (2011) software and the general linear models procedures. The experimental design of each study was a specialized randomized complete block in a Latin square design with data collected as a split plot over time. Dogs represented the blocks. Each dog received each treatment randomly in successive days or weeks. The statistical model included effects of treatment (TRT), dog, dog by treatment (TRT*DOG; error term used to assess treatment and dog effects), time (HR), treatment by time (TRT*HR), and residual error (SE; used to test remaining effects). Behavior data were collected and analyzed as counts per time period, but for clarity of presentation, the data are reported as percentage of time dogs engaged in each behavior.
In Study 4, putative pheromones were examined as room diffusers. Room diffusers were obtained and different liquid odors were applied over a 24 hour period. In contrast to Studies 1, 2, and 3, heart rates and behavior data were obtained over 24 hours (rather than just 2 hours after treatment application as in the other studies) and a baseline day was included in the dataset. Similar to Studies 1, 2, and 3, each dog experienced each treatment on different days in random order. The following treatment groups were evaluated: Baseline, Placebo Formula H Pheromone (SERG), DAP room diffuser (DAPRD; as available commercially) and the Rabbit Pheromone in diffuser form prepared in accordance with Example 4 (RPRD, 1 μg/mL). […]

[2] = test system: nervous dogs; assay: Example 11 Study 2: behavior and heart rate after collar or spray with startle; type: in vivo, dog
Description: as §1, §2, §3, §4
In Study 2, the dogs were exposed to the same treatments as in Study 1, except a startle was also applied. An aerosol can (Pet Corrector, The Company of Animals, Surrey, UK) was used to make a loud hissing noise and a spray of liquid as a startle. The protocol involved spraying the Rabbit Pheromone at 0, 30, 60, and 90 min (RP; 1 μg/mL) or collar application (PLACEBO, SERG, or DAPC) at time zero. Each dog was startled at 45 minutes. Data were recorded for 120 minutes. Data reporting periods were: 0 (0-30 min), 30 (30-60 min), and 90 (90-120 min).

[3] = 120 minutes after startle, SERG, DAPC collars, RP spray 1 μg/mL

How did the “TEMP (surface temperature)” value ([1]; after room diffuser treatment, dogs 5-8, Placebo 30.9) turn out when `C/C=C(\C)C=O` [RP, 2-methylbut-2-enal] was run?
The value was 33.8.

And the “HR (overall heart rate)” value ([1]; after room diffuser treatment, dogs 5-8, Placebo 79.6)?
Its value is 108.4.

What about the Defecate ([1]; room diffuser, 24 hours) of the same compound?
Its Defecate is 0.18% of time.

What about the Drink ([1]; room diffuser, 24 hours) of the same compound?
Its Drink is 0.18% of time.

What about the Eat ([1]; room diffuser, 24 hours) of the same compound?
Its Eat is 0.26% of time.

And the Lick self ([1]; room diffuser, 24 hours)?
Its Lick self is 0.09% of time.

What about the “Lying down” value ([1]; room diffuser, 24 hours) of the same compound?
Its value is 87.0% of time.

What about the Pace- ([1]; room diffuser, 24 hours) of the same compound?
Its Pace- is 5.67% of time.

What about the Sitting ([1]; room diffuser, 24 hours) of the same compound?
The Sitting was 5.00% of time.

And the Standing ([1]; room diffuser, 24 hours)?
The Standing was 1.42% of time.

And the Urinate ([1]; room diffuser, 24 hours)?
The Urinate was 0.26% of time.

And the “drinking behavior of individual dogs” value ([1]; room diffuser, FIG. 16)?
Its value is “dog 7 showed increased drinking”.

And the “heart rate and surface temperature of individual dogs” value ([1]; room diffuser)?
Its value is “increased the surface temperature of dog 7 compared to placebo”.

What about the “heart rate and surface temperature of individual dogs” value ([1]; room diffuser, listed as rabbit pheromone) of the same compound?
The value was “Dog 5 had elevated HR and surface temperature; also recorded: Dog 6 had increased heart rate and decreased surface temperature”.

And the “heart rate of dog 5” value ([1]; room diffuser, increased to)?
The value was “about 200 bpm”.

And the Defecate [2, 3]?
Its Defecate is 0.0 % of time.

What about the Drink [2, 3] of the same compound?
Its Drink is 3.7 % of time.

And the Eat [2, 3]?
The Eat was 1.2 % of time.

What about the Lick self [2, 3] of the same compound?
Its Lick self is 0.0^b % of time.

What about the Lying down [2, 3] of the same compound?
The Lying down was 46.4 % of time.

What about the Pace-walk [2, 3] of the same compound?
Its Pace-walk is 19.4 % of time.

What about the Sitting [2, 3] of the same compound?
The Sitting was 53.8 % of time.

What about the Standing [2, 3] of the same compound?
Its Standing is 23.4^b % of time.

What about the Urinate [2, 3] of the same compound?
Its Urinate is 0.0 % of time.

And the “lying down and sitting behavior of individual dogs after startle” value ([2]; FIGS. 8 and 9)?
Its value is “dogs 2, 3, 6 and 8 spent less time lying down but more time sitting after startle”.

What about the “standing behavior after startle” value ([2]; in comparison to Placebo or SERG collars) of the same compound?
The value was “increased standing behavior among RP-sprayed dogs”.
